Where two headings read alike, the source gives them in different places.

A short description of data set [1]: Solvency: maximum amount of active ingredient solubilized per liter of solvent. Conditions: for Solvency in N-methylpyrrolidone (NMP): solvent N-methylpyrrolidone (NMP); for Solvency in γ-butyrolactone: solvent γ-butyrolactone.
Procedure: The above compositions were prepared at a temperature of about 50° ° C. stirred with a vortex mixer until visual inspection indicated the absence of solids, confirming solubilization of the active ingredient in the solvent.
Data set [2] can be described thus: Crystallization test of azoxystrobin solution upon dilution in water. Conditions: azoxystrobin solution (100 g/L) in the solvent diluted 1:20 in water. The class given is physicochemical. An excerpt: The active ingredient azoxystrobin was chosen to carry out an additional test of crystallization of the active ingredient upon dilution in water. […] Among the solvents chosen for evaluation are the solvents dihydrolevoglucosenone, γ-butyrolactone, N-methylpyrrolidone, and triacetin.

The subject of data set [3] is Euphorbia pulcherrima (Euphorbiaceae), Poinsettia.
Source text: Phytotoxicity data were generated in tests on Poinsettia (red leaves plant), since this leaf is sensitive to damage caused by chemical agents, which makes it possible to verify and compare the tested solvents.
For data set [4] the following is noted: 1-octanol/water; cited from earlier work.
For data set [5] the following is noted: safety data sheet class; cited from earlier work.
Where [6] appears, read: Euphorbia pulcherrima (Poinsettia), in vivo, 24 h.

For the compound `CS(=O)(=O)c1ccc(C(=O)C2C(=O)CCCC2=O)c([N+](=O)[O-])c1` [Mesotrione], in data set [1], the “Solvency in N-methylpyrrolidone (NMP)” value is 400 g/L and the “Solvency in γ-butyrolactone” value is recorded as 300 g/L.

In the case of `OC(Cc1ccccc1Cl)(Cn1nc[nH]c1=S)C1(Cl)CC1` (centres unmarked) [Prothioconazole], in data set [1], the “Solvency in N-methylpyrrolidone (NMP)” value was 1100 g/L and the “Solvency in γ-butyrolactone” value is on record as 900 g/L.

As for `O=C1CCC2COC1O2` (centres unmarked) [dihydrolevoglucosenone, 6,8-dioxabicyclo[3.2.1]octan-4-one], the Observation by dilution result in data set [2] is recorded as “Two-phase”. Also, the “Phytotoxicity (damage %)” value in data set [3] (setting [6]) came to 6%. In addition, the logP (usually a log measure of how a compound divides between an organic and an aqueous phase) in data set [4] was −1.52. Besides, in data set [5], the Eye irritation is reported as 2A.

Take `CN1CCCC1=O` [NMP, N-methylpyrrolidone]: the Observation by dilution entry in data set [2] was “Immediate”. Besides, the “Phytotoxicity (damage %)” value in data set [3] (setting [6]) is given as 42%. Moreover, the logP in data set [4] is recorded as −0.40. Moreover, in data set [5], the Eye irritation is 2A, the Reproductive system tox. is listed as 1B, the Respiratory tox. is on record as 3 and the Skin irritation is given as 2.

For `O=C1CCCO1` [γ-butyrolactone], the Observation by dilution result in data set [2] was “Immediate”. Moreover, the “Phytotoxicity (damage %)” value in data set [3] (damage observed in each Poinsettia leaf after 24 h of exposure) came out at 27%. Besides, in data set [5], the Aquatic environment tox. is 3, the “Central nervous system tox.” value is 3 and the Eye irritation is 1.

With `CO/C=C(/C(=O)OC)c1ccccc1Oc1cc(Oc2ccccc2C#N)ncn1` [Azoxystrobin], in data set [1], the “Solvency in N-methylpyrrolidone (NMP)” value is reported as 900 g/L and the “Solvency in γ-butyrolactone” value is reported as 800 g/L.

On to `CC(=O)OCC(COC(C)=O)OC(C)=O` [Triacetin], for which the Observation by dilution result in data set [2] is “Two-phase”.

Source of the values: patent publication US20240251787A1, “AGROCHEMICAL COMPOSITION, AGROCHEMICAL FORMULATION, USE OF A DIOXABICYCLOALKANE DERIVATIVE, AND, METHOD FOR THE TREATMENT AND/OR PREVENTION OF DISEASES OR PESTS IN A PLANT OR PLANT SEED” (Oxiteno S.A. Indústria e Comércio, priority 2021, published 2024).
